Assay results from patent US10251395B2, “Substituted furano-/thienocycloalkylamino-2-pyrimidine derivatives and use thereof for controlling undesired plant growth” (Bayer CropScience Aktiengesellschaft, priority 2015, dated 2019).

Legend:
Assay type in all cases: in vivo
[1] = test system: Polygonum convolvulus; test: Pre-emergence herbicidal effect; conditions: scored visually after 3 weeks
Procedure, shortened: (§1)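 Pre-emergence soil-surface application of compound as WP or EC in water (600 to 800 L/ha, 0.2% wetting agent) to freshly sown, soil-covered seeds in sandy loam. After 3 weeks under greenhouse conditions, percent activity rated by eye versus untreated plants, from 0% (no effect) to 100% (death).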

[2] = test system: Lolium multiflorum; test: Pre-emergence herbicidal effect; conditions: scored visually after 3 weeks
Procedure, shortened: as §1

[3] = test system: Amaranthus retroflexus; test: Pre-emergence herbicidal effect; conditions: scored visually after 3 weeks
Procedure, shortened: as §1

[4] = test system: Matricaria inodora; test: Pre-emergence herbicidal effect; conditions: scored visually after 3 weeks
Procedure, shortened: as §1

[5] = test system: Viola tricolor; test: Pre-emergence herbicidal effect; conditions: scored visually after 3 weeks
Procedure, shortened: as §1

[6] = test system: Stellaria media; test: Pre-emergence herbicidal effect; conditions: scored visually after 3 weeks
Procedure, shortened: as §1

[7] = test system: Cyperus esculentus; test: Pre-emergence herbicidal effect; conditions: Dosage 320 g/ha, scored visually after 3 weeks
Procedure, shortened: as §1

[8] = test system: Veronica persica; test: Pre-emergence herbicidal effect; conditions: scored visually after 3 weeks
Procedure, shortened: as §1

[9] = test system: Echinochloa crus-galli; test: Pre-emergence herbicidal effect; conditions: scored visually after 3 weeks
Procedure, shortened: as §1

[10] = test system: Setaria viridis; test: Pre-emergence herbicidal effect; conditions: scored visually after 3 weeks
Procedure, shortened: as §1

[11] = test system: Alopecurus myosuroides; test: Pre-emergence herbicidal effect; conditions: scored visually after 3 weeks
Procedure, shortened: as §1

[12] = test system: Amaranthus retroflexus; test: Post-emergence herbicidal effect; conditions: assessed visually after about 3 weeks vs untreated controls
Procedure, shortened: (§2)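 Herbicidal effect was rated visually roughly 3 weeks after foliar treatment, as % versus untreated plants, with 0% meaning the same as controls and 100% meaning dead. Plants were treated at the one-leaf stage in the greenhouse with aqueous WP or EC sprays at 600–800 L/ha containing 0.2% wetter.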

[13] = test system: Ipomoea purpurea; test: Post-emergence herbicidal effect; conditions: 320 g/ha, assessed visually after about 3 weeks vs untreated controls
Procedure, shortened: as §2

[14] = test system: Matricaria inodora; test: Post-emergence herbicidal effect; conditions: 320 g/ha, assessed visually after about 3 weeks vs untreated controls
Procedure, shortened: as §2

[15] = test system: Viola tricolor; test: Post-emergence herbicidal effect; conditions: assessed visually after about 3 weeks vs untreated controls
Procedure, shortened: as §2

[16] = test system: Stellaria media; test: Post-emergence herbicidal effect; conditions: assessed visually after about 3 weeks vs untreated controls
Procedure, shortened: as §2

[17] = test system: Veronica persica; test: Post-emergence herbicidal effect; conditions: assessed visually after about 3 weeks vs untreated controls
Procedure, shortened: as §2

[18] = test system: Abutilon theophrasti; test: Pre-emergence herbicidal effect; conditions: Dosage 320 g/ha, scored visually after 3 weeks
Procedure, shortened: as §1

[19] = test system: Polygonum convolvulus; test: Post-emergence herbicidal effect; conditions: 320 g/ha, assessed visually after about 3 weeks vs untreated controls
Procedure, shortened: as §2

[20] = test system: Lolium multiflorum; test: Post-emergence herbicidal effect; conditions: 320 g/ha, assessed visually after about 3 weeks vs untreated controls
Procedure, shortened: as §2

[21] = test system: Abutilon theophrasti; test: Post-emergence herbicidal effect; conditions: 320 g/ha, assessed visually after about 3 weeks vs untreated controls
Procedure, shortened: as §2

[22] = test system: Alopecurus myosuroides; test: Post-emergence herbicidal effect; conditions: 320 g/ha, assessed visually after about 3 weeks vs untreated controls
Procedure, shortened: as §2

| Structure (SMILES) | POLCO pre-emergence efficacy (herbicidal activity) ([1]; Dosage 320 g/ha) | LOLMU pre-emergence efficacy (herbicidal activity) ([2]; Dosage 320 g/ha) | AMARE pre-emergence efficacy (herbicidal activity) ([3]; Dosage 320 g/ha) | MATIN pre-emergence efficacy (herbicidal activity) ([4]; Dosage 80 g/ha) | MATIN pre-emergence efficacy (herbicidal activity) ([4]; Dosage 320 g/ha) | VIOTR pre-emergence efficacy (herbicidal activity) ([5]; Dosage 80 g/ha) | VIOTR pre-emergence efficacy (herbicidal activity) ([5]; Dosage 320 g/ha) | STEME pre-emergence efficacy (herbicidal activity) ([6]; Dosage 80 g/ha) | STEME pre-emergence efficacy (herbicidal activity) ([6]; Dosage 320 g/ha) | CYPES pre-emergence efficacy (herbicidal activity) [7] | VERPE pre-emergence efficacy (herbicidal activity) ([8]; Dosage 80 g/ha) | VERPE pre-emergence efficacy (herbicidal activity) ([8]; Dosage 320 g/ha) | ECHCG pre-emergence efficacy (herbicidal activity) ([9]; Dosage 320 g/ha) | SETVI pre-emergence efficacy (herbicidal activity) ([10]; Dosage 320 g/ha) | ALOMY pre-emergence efficacy (herbicidal activity) ([11]; Dosage 320 g/ha) | post-emergence efficacy AMARE ([12]; 320 g/ha) | post-emergence efficacy PHBPU [13] | post-emergence efficacy MATIN [14] | post-emergence efficacy VIOTR ([15]; 80 g/ha) | post-emergence efficacy VIOTR ([15]; 320 g/ha) | also measured |
| --- | --- | --- | --- | --- | --- | --- | --- | --- | --- | --- | --- | --- | --- | --- | --- | --- | --- | --- | --- | --- | --- |
| N#Cc1cc2c(s1)C(Nc1ncc(C(F)(F)F)c(N)n1)CCC2 (racemic) [compound 285] | 100% | 90% | 100% | 100% | 100% | 100% | 100% | 100% | 100% | 50% | 100% | 100% | 100% | 100% | 60% | 100% | 60% | 80% | 80% | 100% | LOLMU pre-emergence efficacy (herbicidal activity) ([2]; Dosage 80 g/ha): 80%; AMARE pre-emergence efficacy (herbicidal activity) ([3]; Dosage 80 g/ha): 100%; ECHCG pre-emergence efficacy (herbicidal activity) ([9]; Dosage 80 g/ha): 60%; SETVI pre-emergence efficacy (herbicidal activity) ([10]; Dosage 80 g/ha): 70%; ALOMY pre-emergence efficacy (herbicidal activity) ([11]; Dosage 80 g/ha): 50%; post-emergence efficacy AMARE ([12]; 80 g/ha): 100%; post-emergence efficacy STEME ([16]; 80 g/ha): 90%; post-emergence efficacy STEME ([16]; 320 g/ha): 100%; post-emergence efficacy VERPE ([17]; 80 g/ha): 60%; post-emergence efficacy VERPE ([17]; 320 g/ha): 80% |
| C/C(=N\OC(C)C)c1cnc(NC2CCCc3sc(C)cc32)nc1N (racemic) [compound 288] | 100% | 100% | 100% | 100% | 100% | 70% | 100% | 100% | 100% |  | 100% | 100% | 100% | 100% | 80% | 90% | 70% | 90% | 70% | 90% | POLCO pre-emergence efficacy (herbicidal activity) ([1]; Dosage 80 g/ha): 80%; ABUTH pre-emergence efficacy (herbicidal activity) [18]: 70%; post-emergence efficacy POLCO [19]: 70%; post-emergence efficacy LOLMU [20]: 60%; post-emergence efficacy STEME ([16]; 320 g/ha): 80%; post-emergence efficacy VERPE ([17]; 320 g/ha): 100%; post-emergence efficacy ABUTH [21]: 90%; post-emergence efficacy ALOMY [22]: 70% |
| Cc1cc2c(s1)CCCC2Nc1nc(N)c(Br)c(C(C)(C)F)n1 (racemic) [compound 307] | 70% |  |  |  | 50% |  | 100% |  |  | 60% |  |  |  |  |  |  |  |  |  |  |  |
